Laboratory results: patent US20170196888A1, “COMPOSITIONS AND METHODS FOR TREATING CANCER” (Yeda Research and Development Co. Ltd., priority 2014, published 2017)

Assays:
EGF-induced genes = test: Affymetrix Exon Array time course of EGF- and DEX-regulated transcripts; assay type: cell-based, human; conditions: at 20 minutes
Method: (§1) RNA was isolated using the PerfectPure kit from 5 Prime (Hamburg, Germany). Affymetrix GeneChip Human Exon 1.0 ST arrays were used and data were deposited in Gene Expression Omnibus (GSE53405). PCR of pre-mRNA or mRNA used forward primers positioned in the second intron or exon, respectively (Table 3 below).
(§2) All reactions were performed using Power SYBR Green PCR Master Mix (Applied Biosystems, Foster City, CA). For high throughput PCR the Fluidigm® BioMark system was employed. The Affymetrix Expression Console was used for analyses of DNA-arrays, as described^51.
Conceivably, the inhibitory effect of GR involves alterations of EGF-induced transcription. Specifically, GR might affect transcript synthesis or modulate EGF-induced RNA splicing in MCF10A cells. To address such models, cells were stimulated with EGF, DEX or the combination, mRNAs were isolated along a time course from 20 minutes to four hours, and the RNA was hybridized to Affymetrix Exon Arrays which is able to resolve small changes in splicing^19. In addition, confirmatory PCR analyses are provided.

[1] = system: MCF10A derivatives stably expressing ERRFI1-specific shRNAs; test: Migration assay of ERRFI1-depleted MCF10A derivatives; assay type: cell-based, human; conditions: ERRFI1-depleted cells
Method: FIG. 3A—Serum-starved MCF10A cells were treated with EGF or DEX. qPCR analysis was performed using RNA and primers corresponding to pre-mRNAs (dashed lines) or the mature forms (solid lines). FIG. 3B—A scheme depicting negative feedback regulators of EGFR signalling. FIGS. 3C-D—Cells were stimulated as in A and extracts were immunoblotted for ERRFI1, GR and ERK2. Normalized ERRFI1 signals are shown. FIGS. 3E-F—Active ERK signals (pERK) were determined, normalized and presented. FIG. 3G—MCF10A derivatives stably expressing ERRFI1-specific shRNAs were tested for migration following the indicated treatments. The results were analysed as in FIG. 1D. *p<0.05; ***p<0.0001 (one-way Anova). FIG. 3H—Serum-starved MCF10A cells were pre-incubated for 20 minutes with actinomycin D (1 μg/m1), and thereafter stimulated for the indicated time intervals with EGF or DEX. […] FIG. 3I—The pERK signals from FIG. 3H and additional experiments were quantified, normalized to total ERK2 levels and presented.
Cells (5×10^4 cell/insert) were plated in the upper compartment of a 24-well transwell tray (Corning, Acton, MA), and their migration was assayed^16. […] For collective migration, 8×10^4 cells were seeded in plastic insets (Ibidi), and after overnight incubation, the plastic barriers were removed and time-lapse images were recorded.

MCF10A cells [2] = test: Annexin V / propidium iodide flow cytometry; assay type: cell-based, human; conditions: MCF10A pre-treated 24 hours with EGF, DEX or the combination
Method: FIG. 1J—MCF10A cells pre-treated for 24 hours with of EGF, DEX or the combination. Thereafter, cells were stained for the apoptosis marker annexin V and the necrosis marker propidium iodide (PI), and later assayed using flow cytometry.

MCF10A cells [3] = test: Transwell migration assay of EGF-stimulated MCF10A cells; assay type: cell-based, human; conditions: for inhibition of EGF-induced cell migration: MCF10A in transwell, EGF 10 ng/ml, DEX 100 nM, E2 30 nM, PRG 30 nM, MPA 100 nM, 20 hours
Method: MCF10A cells were grown as described^16 and stimulated with EGF (10 ng/ml) or DEX (100 nM). siRNA transfections employed Oligofectamine (Invitrogen) and ON-Target SMART (Dharmacon, Lafayette, Colo.) oligonucleotides. Lapatinib (di-p-Toluenesulfonate Salt) was purchased from LC Laboratories. Anti GR antibody for immunostaining (sc-1004, SANTA CRUZ BIOTECHNOLOGY, INC.)
Cells (5×10^4 cell/insert) were plated in the upper compartment of a 24-well transwell tray (Corning, Acton, MA), and their migration was assayed^16. Cell invasion assays were performed using BioCoat Matrigel Invasion Chambers (BD Bioscience, Franklin Lakes, N.J.). For tracking, cells were seeded (3×10^3 cells/cm^2) on collagen-coated micro-slide (from Ibidi). For collective migration, 8×10^4 cells were seeded in plastic insets (Ibidi), and after overnight incubation, the plastic barriers were removed and time-lapse images were recorded.

[4] = system: N87 human gastric cancer cells; test: N87 tumor xenograft study with day or night dosing; assay type: in vivo, mice
Method: All animal experiments were approved by the institutional committee. C57BL/6 (CD45.2, Harlan) and knockout animals were maintained under defined flora conditions and at 12 hour light-dark cycles. For daily clock studies, female mice (10-12 week old) were divided into 2 groups; one was maintained in the day-night room, and the second group was located in a special room (with inverted day-light cycles). Mice were let acclimate for at least one week prior to protein and RNA extraction. For tumor xenograft studies, 20 athymic nude (nu/nu) mice were used and maintained in a Specific Pathogen Free environment. Animals (n=10 per group) were inoculated subcutaneously in the left leg (using a sterile 22-gauge needle) with 5×10^6 N87 cells. Mice were randomized into two groups, daily treated with Lapatinib by oral gavage (40 mg/kg) in the night (2 hours after the light off) and in the day (approximately 70 minutes before light on). Treatments were started 2 weeks after cell injection. Tumor width (W) and length (L) were measured once a week with a calliper and tumor volume (V) was calculated according to the formula: V=0.5×W^2×L.

glucocorticoid receptor = target: T1, glucocorticoid receptor (Homo sapiens, UniProt P04150); conditions: cited from earlier work
T1 sequence (P04150 1-777): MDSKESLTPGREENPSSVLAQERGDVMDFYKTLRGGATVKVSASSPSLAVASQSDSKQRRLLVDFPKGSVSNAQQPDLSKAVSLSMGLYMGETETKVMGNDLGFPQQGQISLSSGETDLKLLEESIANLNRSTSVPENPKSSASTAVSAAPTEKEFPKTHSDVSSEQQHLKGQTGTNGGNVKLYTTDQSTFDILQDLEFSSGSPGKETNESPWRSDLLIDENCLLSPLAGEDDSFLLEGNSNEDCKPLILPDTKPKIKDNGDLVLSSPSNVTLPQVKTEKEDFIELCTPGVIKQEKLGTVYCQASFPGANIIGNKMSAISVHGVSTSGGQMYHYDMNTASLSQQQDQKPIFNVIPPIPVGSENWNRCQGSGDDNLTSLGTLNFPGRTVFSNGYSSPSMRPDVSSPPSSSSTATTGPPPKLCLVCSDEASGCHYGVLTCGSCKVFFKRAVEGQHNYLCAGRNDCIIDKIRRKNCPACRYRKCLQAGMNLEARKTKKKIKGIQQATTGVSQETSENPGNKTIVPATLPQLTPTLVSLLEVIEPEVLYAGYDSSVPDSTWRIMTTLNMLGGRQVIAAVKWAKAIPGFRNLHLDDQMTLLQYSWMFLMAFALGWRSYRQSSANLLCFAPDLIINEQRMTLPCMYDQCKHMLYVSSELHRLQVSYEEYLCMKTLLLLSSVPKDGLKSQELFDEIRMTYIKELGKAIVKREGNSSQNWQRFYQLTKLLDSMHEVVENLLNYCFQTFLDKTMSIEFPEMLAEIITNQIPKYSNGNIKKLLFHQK

DUSP1 and ERRFI1 = test: qPCR of negative feedback regulators (pre-mRNA and mRNA); assay type: cell-based, human; conditions: serum-starved MCF10A, EGF 10 ng/ml, DEX 100 nM
Method: as §1, §2
Analyses of defects in vulva formation in worms and aberrations in eye development in insects, two processes controlled by EGFR, helped define several evolutionary conserved and partly redundant negative feedback loops able to robustly terminate EGFR signalling^21. Since Module A (EGF^UP/DEX^UP) includes several orthologs of the invertebrate negative feedback loops, three of them were selected for further analysis. DUSP1 is the prototype of MAPK-specific phosphatases, which dephosphorylate the shared Thr-Xxx-Tyr motif of MAPKs. ERRFI1/MIG6 (also called RALT) is a previously identified steroid-inducible adaptor, which physically binds and inhibits the kinase domain of EGFR^5. […] By using primers specific for the nascent or the mature transcripts, de novo transcription of these three negative regulators was followed (FIG. 3A). […]

Q: Which “inhibitory effect on EGF-induced genes, share of maximal capacity” value (EGF-induced genes) does the source give for `C[C@@H]1C[C@H]2[C@@H]3CCC4=CC(=O)C=C[C@]4(C)[C@@]3(F)[C@@H](O)C[C@]2(C)[C@@]1(O)C(=O)CO` [DEX, dexamethasone] here?
A: 70%

Q: And the “inhibition of EGF-induced migration” value [1]?
A: 30%

Q: And the “cellular toxicity, markers of apoptosis (annexin V) and necrosis (propidium iodide)” value (MCF10A cells [2])?
A: excluded the possibility of cellular toxicity

Q: And the “inhibition of EGF-induced migration” value (MCF10A cells [3]; control cells)?
A: 90%

Q: What does the source list for `CS(=O)(=O)CCNCc1ccc(-c2ccc3ncnc(Nc4ccc(OCc5cccc(F)c5)c(Cl)c4)c3c2)o1` [Lapatinib]?
A: therapeutic impact on tumor size and weight by time of administration ([4]; 40 mg/kg/day oral gavage, just before the resting phase (ZT23) versus beginning of the active phase): statistically significant enhancement; tumor angiogenesis (appearance of tumors) ([4]; administration during the resting phase): inhibited tumor angiogenesis

Q: Which EC50 (glucocorticoid receptor) does the source give for `CC(=O)O[C@]1(C(C)=O)CC[C@H]2[C@@H]3C[C@H](C)C4=CC(=O)CC[C@]4(C)[C@H]3CC[C@@]21C` [MPA, medroxyprogesterone acetate] here?
A: ~10 nM

Q: What about the “inhibition of EGF-induced cell migration” value (MCF10A cells [3]) of the same molecule?
A: less potent

Q: For `CC(=O)[C@H]1CC[C@H]2[C@@H]3CCC4=CC(=O)CC[C@]4(C)[C@H]3CC[C@]12C` [PRG, progesterone], which “inhibition of EGF-induced cell migration” value (MCF10A cells [3]) is on record?
A: weak or no activity

Q: With “EGF: epidermal growth factor, EGFR ligand used to stimulate MCF10A cells” as the molecule, how does the “induction of DUSP1 and ERRFI1 transcripts” value (DUSP1 and ERRFI1) read?
A: 3-5 fold
